From the Deep4Chem optical property database
Values joined by “and” are separate entries in the source; they are usually repeats but may differ in a detail not shown here. Equal entries are not always repeated. Values belong to the molecule of their own block, whether it stands above or below them.

Assay: solvent given as SMILES

Compound: C#CCNC1=C2C=CC=[N+]2[B-](F)(F)n2cccc21
emission maximum (in C1CCCCC1): 482 nm and 486 nm | emission maximum (in CC(C)=O): 466.5 nm | emission maximum (in CCCCO): 463 nm | emission maximum (in CCCO): 467 nm | emission maximum (in CCO): 463 nm and 468 nm | emission maximum (in CCOC(C)=O): 469.5 nm | emission maximum (in CN(C)C=O): 458 nm | emission maximum (in CO): 464.5 nm | emission maximum (in CS(C)=O): 463 nm | emission maximum (in Cc1ccccc1): 485 nm | emission maximum (in ClC(Cl)Cl): 485 nm | emission maximum (in OCC(F)(F)F): 480.5 nm | emission maximum (in c1ccccc1): 485 nm

emission maximum (in C1CCCCC1): 387 nm
Compound: CCCC1(CCC)c2cc(-c3ccccc3)ccc2-c2ccc(-c3ccc4c(c3)C(CCC)(CCC)c3cc(-c5ccccc5)ccc3-4)cc21

Compound: c1ccc(-c2ccc(-c3ccc(N(c4ccccc4)c4ccccc4)cc3)c3nsnc23)cc1
emission maximum (in C1CCOC1): 578 nm | emission maximum (in CC(C)=O): 619 nm | emission maximum (in CCCCCC): 526 nm | emission maximum (in CCOCC): 558 nm

emission maximum (in ClCCl): 735 nm
Compound: CN(C)c1ccc(C2=CC3=C(c4ccc(C=C(C#N)C#N)cc4)[C@H]4c5ccccc5[C@]3(S2)c2ccccc24)cc1

emission maximum (in CO): 489 nm | emission maximum (in ClC(Cl)Cl): 433 nm
Compound: COc1ccc(O)cc1C=O

emission maximum (in ClC(Cl)Cl): 361 nm
Compound: CCCCCCCCC1(CCCCCCCC)c2cc(-c3ccccc3)ccc2-c2ccc(-c3ccccc3)cc21

emission maximum (in CCO): 447 nm
Compound: CC(C)(C)OC(=O)NC(C(=O)OCc1ccc2c3cccc4cccc(c5cccc1c52)c43)c1c[nH]c2ccccc12 (stereo unspecified)

Compound: Cc1ccc(C2=[N+]3C(=Cc4ccc(C)n4[B-]3(F)F)c3ccccc32)[nH]1
emission maximum (in C1CCOC1): 621 nm | emission maximum (in CC#N): 620 nm | emission maximum (in CCCCCC): 613 nm | emission maximum (in CO): 616 nm | emission maximum (in Cc1ccccc1): 623 nm | emission maximum (in ClCCl): 624 nm

emission maximum (in ClCCl): 527 nm
Compound: O=[N+]([O-])c1ccc(C#Cc2ccc3ccc(C#Cc4ccc([N+](=O)[O-])cc4)cc3c2)cc1

emission maximum (in ClCCl): 409 nm
Compound: COc1ccc(-c2cc3c(ccc4sc5ccc6sccc6c5c43)s2)cc1

emission maximum (in ClC(Cl)Cl): 442 nm
Compound: Cc1ccc(C2CC(=O)Oc3c2c2nc4ccc(C)cc4nc2c2ccccc32)cc1 (stereo unspecified)

Compound: O=C1c2ccccc2-c2ccc(N3CCN(c4ccccc4)CC3)c3cccc1c23
emission maximum (in C1CCCCC1): 529 nm | emission maximum (in C1CCOC1): 583 nm | emission maximum (in C1COCCO1): 578 nm | emission maximum (in CC1COC(=O)O1): 614 nm | emission maximum (in CC#N): 603 nm | emission maximum (in CC(C)=O): 601 nm | emission maximum (in CCCCCCCCO): 590 nm | emission maximum (in CCCCCO): 586 nm | emission maximum (in CCCCO): 581 nm | emission maximum (in CCCO): 586 nm | emission maximum (in CCO): 589 nm | emission maximum (in CCOC(C)=O): 587 nm | emission maximum (in CN(C)C=O): 602 nm | emission maximum (in CO): 577 nm | emission maximum (in CS(C)=O): 613 nm | emission maximum (in Cc1ccccc1): 562 nm | emission maximum (in ClC(Cl)Cl): 591 nm

emission maximum (in ClCCl): 391 nm
Compound: CC1(C)c2ccccc2-c2cc3c(cc21)c1ccccc1n3-c1ccccc1

emission maximum (in CC#N): 470 nm
Compound: Cn1c(-c2ccc(-c3nc(-c4ccccc4)c(-c4ccccc4)n3C)s2)nc(-c2ccccc2)c1-c1ccccc1

emission maximum (in CS(C)=O): 514 nm
Compound: Cc1cccn2c1cc1c3ccccc3nc(-c3cccs3)c12

emission maximum (in ClCCl): 359 nm
Compound: C[Si](C)(c1ccc(-c2nc3ccccc3n2-c2ccccc2)cc1)c1ccc(-c2nc3ccccc3n2-c2ccccc2)cc1

emission maximum (in CO): 399 nm
Compound: Cc1ccc(-c2nc(-c3cccc(O)c3)[nH]c2-c2ccc(C)cc2)cc1

emission maximum (in C1CCCCC1): 297 nm | emission maximum (in CC#N): 322 nm | emission maximum (in CCO): 324 nm | emission maximum (in CCOC(C)=O): 318 nm | emission maximum (in O): 328 nm
Compound: COC(=O)c1nc(-c2ccccc2)oc1C

emission maximum (in ClCCl): 430 nm
Compound: CCOC(=O)C1=C(C(=O)OCC)C2(c3ccccc3-c3ccccc32)[C@@H](c2ccccc2)C=C2c3cc(OC)c(OC)cc3CCN21

emission maximum (in ClCCl): 528 nm
Compound: CC(C)(C)c1ccc2c(c1)c1cc(C(C)(C)C)ccc1n2-c1ccc(C#Cc2ccc(C=O)cc2)cc1

emission maximum (in C1CCCCC1): 463 nm | emission maximum (in C1CCOC1): 540 nm | emission maximum (in CC#N): 598 nm | emission maximum (in CS(C)=O): 600 nm | emission maximum (in ClCCl): 571 nm
Compound: C(=C\c1ncnc2ccccc12)/c1ccc(N(c2ccccc2)c2ccccc2)cc1
